From ChEMBL document CHEMBL1151258, “New cytotoxic cembranes from the sea pen Gyrophyllum sibogae” (2004) come the findings set out here.

Holding throughout (type): functional
What all share (settings): read-out: ED50 (the source's name)

Test [1] concerns DU-145. The test is described as follows: Cytotoxicity against human DU145 cells.
Test [2] can be described thus: Cytotoxicity against human IGROV cells.
Test [3] has as its system K562. In words: Cytotoxicity against human K562 cells.
Test [4] relates to HT-29. The test is described as follows: Cytotoxicity against human HT-29 cells.

Each structure is given as a SMILES string. pEC50: −log10 of the molar value.

With `C/C1=C/C=C(\C(C)C)C(=O)[C@@H](O)[C@H](C)CCC(=O)[C@H](CO)CCC1`, the pEC50 in test [1] was 7.09; in test [2], 7.04; in test [3], 7.20; in test [4] it was 7.84.
